Data on two molecules can be found in publication PMC8800105 (The Journal of Biological Chemistry, 2021).

What is called EC50 is the concentration giving half of the maximal effect. A low value points to greater potency.

The experiment addresses TRPA1 (Homo sapiens, UniProt O75762). The experiment is described as follows: whole-cell patch clamp in HEK293. The experiment is classed as cell-based.

TRPA1, sequence (O75762 whole entry): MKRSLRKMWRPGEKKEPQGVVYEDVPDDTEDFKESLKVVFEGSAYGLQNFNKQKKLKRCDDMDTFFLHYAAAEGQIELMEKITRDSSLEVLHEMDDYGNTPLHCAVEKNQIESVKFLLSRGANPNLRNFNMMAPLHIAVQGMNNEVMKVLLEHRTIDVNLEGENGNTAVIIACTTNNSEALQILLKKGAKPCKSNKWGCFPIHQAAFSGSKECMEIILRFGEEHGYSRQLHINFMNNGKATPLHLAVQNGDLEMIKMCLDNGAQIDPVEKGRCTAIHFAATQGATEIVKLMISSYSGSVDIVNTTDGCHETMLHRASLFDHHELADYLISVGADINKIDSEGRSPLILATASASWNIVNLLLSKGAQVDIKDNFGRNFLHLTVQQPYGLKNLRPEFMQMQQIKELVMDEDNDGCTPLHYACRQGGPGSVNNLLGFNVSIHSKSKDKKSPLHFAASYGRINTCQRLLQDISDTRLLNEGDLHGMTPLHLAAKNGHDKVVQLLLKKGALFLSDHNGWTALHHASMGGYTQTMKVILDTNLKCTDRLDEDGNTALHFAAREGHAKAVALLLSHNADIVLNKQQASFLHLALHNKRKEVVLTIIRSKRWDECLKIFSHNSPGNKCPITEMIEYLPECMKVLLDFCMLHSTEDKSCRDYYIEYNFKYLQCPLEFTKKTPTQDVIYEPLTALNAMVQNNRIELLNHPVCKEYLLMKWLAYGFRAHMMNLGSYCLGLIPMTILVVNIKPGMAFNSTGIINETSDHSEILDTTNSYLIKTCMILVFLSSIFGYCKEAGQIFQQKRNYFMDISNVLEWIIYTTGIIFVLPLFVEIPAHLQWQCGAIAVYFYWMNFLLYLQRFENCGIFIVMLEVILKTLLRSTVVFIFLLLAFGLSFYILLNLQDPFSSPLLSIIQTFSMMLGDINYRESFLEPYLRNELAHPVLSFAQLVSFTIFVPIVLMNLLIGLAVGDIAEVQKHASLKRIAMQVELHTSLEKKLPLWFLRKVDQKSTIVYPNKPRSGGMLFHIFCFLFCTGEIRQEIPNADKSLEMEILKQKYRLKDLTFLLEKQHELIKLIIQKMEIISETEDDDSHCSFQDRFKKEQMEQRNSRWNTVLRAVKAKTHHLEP

For the molecule `O=[N+]([O-])c1ccc(Cl)c([N+](=O)[O-])c1` [DNCB], the EC50 was determined as 42.4 ± 20.9 µM. The same measure for `O=[N+]([O-])c1ccc(F)c([N+](=O)[O-])c1` [DNFB]: 2.3 ± 0.7 µM.
